Assay results from ChEMBL document CHEMBL1777794, “Optimization of the physicochemical and pharmacokinetic attributes in a 6-azauracil series of P2X7 receptor antagonists leading to the discovery of the clinical candidate CE-224,535” (Bioorg Med Chem Lett, 2011).
Values belong to the molecule of their own block, whether it stands above or below them.

How the values were obtained:
P2X purinoceptor 7 [1] = target: T1, P2X purinoceptor 7 (Homo sapiens, UniProt Q99572); experiment: (§1) Antagonist activity at P2X7 receptor in human LPS-stimulated monocytes assessed as inhibition of ATP-induced IL1-beta release by ELISA in presence of human blood; assay type: functional, cell-based
T1 sequence (Q99572 whole entry): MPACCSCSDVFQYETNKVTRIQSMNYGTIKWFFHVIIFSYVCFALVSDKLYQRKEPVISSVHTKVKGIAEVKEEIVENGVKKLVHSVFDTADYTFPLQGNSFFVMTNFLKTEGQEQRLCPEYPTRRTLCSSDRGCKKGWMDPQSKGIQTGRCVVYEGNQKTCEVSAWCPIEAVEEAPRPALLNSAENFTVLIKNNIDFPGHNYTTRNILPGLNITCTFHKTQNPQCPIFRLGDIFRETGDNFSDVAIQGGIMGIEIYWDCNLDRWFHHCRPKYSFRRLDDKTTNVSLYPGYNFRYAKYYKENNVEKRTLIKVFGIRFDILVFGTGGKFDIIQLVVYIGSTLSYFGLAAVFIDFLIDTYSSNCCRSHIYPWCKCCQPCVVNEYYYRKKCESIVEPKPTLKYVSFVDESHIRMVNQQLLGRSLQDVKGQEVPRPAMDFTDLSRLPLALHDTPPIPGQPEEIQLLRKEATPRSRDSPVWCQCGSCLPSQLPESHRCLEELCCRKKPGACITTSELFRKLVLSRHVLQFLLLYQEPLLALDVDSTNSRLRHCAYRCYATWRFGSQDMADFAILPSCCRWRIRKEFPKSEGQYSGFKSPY

P2X purinoceptor 7 [2] = target: T1, P2X purinoceptor 7; experiment: Antagonist activity at P2X7 receptor in human LPS-stimulated monocytes assessed as inhibition of ATP-induced IL1-beta release by ELISA; assay type: functional, cell-based
[3] = target: T2, P2X purinoceptor 7 (Homo sapiens) (UniProt Q99572); experiment: Antagonist activity at P2X7 receptor in human LPS-stimulated monocytes assessed as inhibition of ATP-induced IL1-beta release at 5 uM by ELISA; assay type: functional, cell-based
T2 sequence (whole entry): T1 sequence (Q99572 whole entry)

Plasma = experiment: Fraction unbound in human plasma; assay type: ADME, cell-free
[4] = target: T2, P2X purinoceptor 7 (Homo sapiens); experiment: as §1; assay type: functional, cell-based
P2X purinoceptor 7 [5] = target: T1, P2X purinoceptor 7; experiment: Antagonist activity at P2X7 receptor expressed in HEK293 cells assessed as inhibition of ATP-induced YOPRO-1 uptake; assay type: functional, cell-based
Hepatocyte = experiment: Metabolic stability in human hepatocytes assessed as compound turnover; assay type: ADME, cell-based
in vivo = details: rat, plasma
Liver microsomes = experiment: Metabolic stability in human liver microsomes assessed as compound turnover; assay type: ADME, Microsome
[6] = Plasma protein binding in human; assay type: ADME, cell-free; details: read-out: PPB
[7] = Apparent permeability from basolateral to apical side of human Caco2 cells; assay type: ADME, cell-based; details: Caco-2
[8] = Cmax in rat at 5 mg/kg, po; assay type: ADME, organism-based; set-up: dose 5 mg/kg, route oral; details: in vivo
[9] = Apparent permeability from apical to basolateral side of human Caco2 cells; assay type: ADME, cell-based; details: Caco-2
[10] = target: T2, P2X purinoceptor 7 (Homo sapiens); experiment: Antagonist activity at P2X7 receptor in human monocytes assessed as inhibition of LPS/ATP-induced IL1-beta release at 1 uM by ELISA; assay type: functional, cell-based

SMILES: O=C(NCCc1ccccc1)c1cc(-n2ncc(=O)[nH]c2=O)ccc1Cl
- IC50 (P2X purinoceptor 7 [2]): 940 nM

SMILES: O=C(NCc1ccccc1)c1cc(-n2ncc(=O)[nH]c2=O)ccc1Cl
- inhibition [3]: 15%

SMILES: O=C(NCCCc1ccccc1)c1cc(-n2ncc(=O)[nH]c2=O)ccc1Cl
- inhibition [3]: 0%

SMILES: CCOCCCNC(=O)c1cc(-n2ncc(=O)[nH]c2=O)ccc1Cl
- inhibition [3]: 2%

SMILES: O=C(NCCc1cccnc1)c1cc(-n2ncc(=O)[nH]c2=O)ccc1Cl
- inhibition [3]: 22%

SMILES: CCCCCCNC(=O)c1cc(-n2ncc(=O)[nH]c2=O)ccc1Cl
- IC50 (P2X purinoceptor 7 [2]): 3600 nM

SMILES: CCCCNC(=O)c1cc(-n2ncc(=O)[nH]c2=O)ccc1Cl
- inhibition [3]: 0%

SMILES: O=C(NCCc1ccccc1Cl)c1cc(-n2ncc(=O)[nH]c2=O)ccc1Cl
- Fu (Plasma): 0.005
- IC50 (P2X purinoceptor 7 [1]): > 10000 nM
- IC90 [4]: > 10000 nM
- IC50 (P2X purinoceptor 7 [5]): 300 nM
- Stability (Hepatocyte): Stable
- IC50 (P2X purinoceptor 7 [2]): 290 nM
- clearance (in vivo): 9.5 mL/min/kg
- Stability (Liver microsomes): Stable
- fraction unbound [6]: < 0.005
- Papp B→A [7]: 21 ×10⁻⁶ cm/s
- Cmax [8]: 2000 ng/mL
- Papp A→B [9]: 10 ×10⁻⁶ cm/s

The next lines start with the values.

- IC50 (P2X purinoceptor 7 [1]): 200 nM
- IC50 (P2X purinoceptor 7 [2]): 34 nM
SMILES: CC(C)Cn1c(=O)cnn(-c2ccc(Cl)c(C(=O)NCC3(O)CCCCCC3)c2)c1=O

- inhibition [3]: 0%
SMILES: O=C(NCC1CCCC1)c1cc(-n2ncc(=O)[nH]c2=O)ccc1Cl

- IC50 (P2X purinoceptor 7 [1]): 71 nM
- IC50 (P2X purinoceptor 7 [2]): 19 nM
SMILES: COCCn1c(=O)cnn(-c2ccc(Cl)c(C(=O)NCC3(O)CCCCCC3)c2)c1=O

- inhibition [10]: 20%
SMILES: O=C(NCC1(O)CCCCCC1)c1cc(-n2ncc(=O)[nH]c2=O)ccc1F

- inhibition [10]: 0%
SMILES: N#Cc1ccc(-n2ncc(=O)[nH]c2=O)cc1C(=O)NCC1(O)CCCCCC1

- IC50 (P2X purinoceptor 7 [2]): 42 nM
SMILES: Cn1c(=O)cnn(-c2ccc(Cl)c(C(=O)NCC3(O)CCCCCC3)c2)c1=O

- IC50 (P2X purinoceptor 7 [2]): 700 nM
SMILES: Cc1ccc(-n2ncc(=O)[nH]c2=O)cc1C(=O)NCC1(O)CCCCCC1
